Results published in US12612412B2, “Antiviral heterocyclic compounds” (Enanta Pharmaceuticals, Inc., priority 2021, dated 2026).
Where two headings read alike, the source gives them in different places.

Experiments:
[1] = test system: genotype A, "Long" strain RSV; experiment: RSV-A assay (CPE protection in Hep-2 cells, ATPlite readout); type: cell-based, Human respiratory syncytial virus (HRSV); settings: genotype A “Long” strain RSV, MOI 0.1, CPE protection, read-out: Human RSV-A (“Long”)
Method in brief: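 Protection from RSV-induced cytopathic effect measured by ATP content (ATPlite) after 5-day culture. Infection used genotype A Long virus at MOI 0.1 on 8,000 Hep-2 cells per well, with compound serially diluted 2-fold; values are EC50.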

[2] = test system: recombinant HMPV CAN97-83 containing eGFP (MPV-GFP1); experiment: HMPV antiviral assay Method-A (MPV-GFP1 eGFP fluorescence in Vero E6 cells); type: cell-based, Human metapneumovirus (HMPV); settings: read-out: HMPV EC50
Method in brief: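 Vero E6 cells in serum-free OptiMEM with 0.5 μg/mL TPCK-trypsin were infected with eGFP-expressing HMPV CAN97-83 at MOI 0.05, with 8-point twofold dilutions from 8 or 2 μM (0.5% DMSO). After 5 days at 32° C, eGFP fluorescence gave % inhibition versus infected untreated wells. EC50 came from four-parameter logistic fits.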

[3] = human respiratory syncytial virus
[4] = human metapneumovirus, Vero C1008, 120 h

SMILES	EC50 [1, 3] [nM]	EC50 [2, 4] [nM]	EC50 [1] [nM]	EC50 ([2]; Method-A, MPV-GFP1 in Vero E6 cells, eGFP fluorescence after 5 days) [nM]
CC[C@]1(C(N)=O)COc2c1cc([C@@](O)(CNC(=O)c1cc(OC3CC3)c3ncccc3c1)C(F)(F)F)nc2-c1ccc(F)cc1 [Example 235]	< 200	< 500		
Cc1cnc2c(Nc3ccc(C)nn3)cc(C(=O)NC[C@](O)(c3cc4c(c(-c5ccc(F)cc5)n3)OC[C@]4(C)C(N)=O)C(F)(F)F)cc2c1 [Example 113]	< 200	< 500		
CCc1cc(C(=O)NC[C@](O)(c2cc3c(c(-c4ccc(F)cc4)n2)OC[C@]3(C)C(N)=O)C(F)(F)F)cc2cn[nH]c12 [Example 102]	< 200	< 500		
COc1cc(C(=O)NC[C@](O)(c2cc3c(c(-c4ccc(F)cc4)n2)OC[C@]3(C)C(N)=O)C(F)(F)F)cn2cc(C3CC3)nc12 [Example 217]	< 200	< 500		
COc1ccc(Nc2cc(C(=O)NC[C@](O)(c3cc4c(c(-c5ccc(F)cc5)n3)OC[C@]4(C)C(N)=O)C(F)(F)F)cc3cc(C)cnc23)nn1 [Example 121]	< 200	< 500		
COC(=O)Nc1cc(C(=O)NC[C@](O)(c2cc3c(c(-c4ccc(F)cc4)n2)OC[C@]3(C)C(N)=O)C(F)(F)F)cc2cc(C)cnc12 [Example 210]	< 200	< 500		
C[C@]1(C(N)=O)COc2c1cc([C@@](O)(CNC(=O)c1cc(Cl)c3[nH]ncc3c1)C(F)(F)F)nc2-c1ccc(F)cc1 [Example 103]	< 200	< 500		
COc1cc(C(=O)NC[C@](O)(c2cc3c(c(-c4ccc(F)c(Cl)c4)n2)OC[C@]3(C)C(N)=O)C(F)(F)F)cc2cc(C3CC3)nn12 [Example 32]	< 200	< 500		
COc1cc(C(=O)NC[C@](O)(c2cc3c(c(-c4ccc(F)cc4)n2)OC[C@@]3(C(N)=O)C2CC2)C(F)(F)F)cc2cn(C(F)F)nc12 [Example 267]	< 200	< 500		
C[C@]1(C(N)=O)COc2c1cc([C@@](O)(CNC(=O)c1ccc3nn(C4CC4)cc3c1)C(F)(F)F)nc2-c1ccc(F)cc1 [Example 170]	< 200	< 500		
COc1cc(C(=O)NC[C@](O)(c2cc3c(c(-c4ccc(F)cc4)n2)OC[C@]3(C)C(N)=O)C(F)(F)F)cc2cc(CF)c(C)nc12 [Example 147]	< 200	< 500		
C[C@]1(C(N)=O)COc2c1cc([C@@](O)(CNC(=O)c1cc(Cl)c3nn(C(F)F)cc3c1)C(F)(F)F)nc2-c1ccc(F)cc1 [Example 42]	< 200	< 500		
COc1cc(C(=O)NC[C@](O)(c2cc3c(c(-c4ccc(F)cc4)n2)OC[C@@]3(C(N)=O)C2CC2)C(F)(F)F)cc2cn(C3CC3)nc12 [Example 280]	< 200	< 500		
COc1cc(C(=O)NC[C@](O)(c2cc3c(c(-c4ccc(F)cc4)n2)OC[C@]3(C)C(N)=O)C(F)(F)F)cc2cc(CO)c(C)nc12 [Example 75]	< 200	> 500		
[2H]C([2H])([2H])NC(=O)Nc1cc(C(=O)NC[C@](O)(c2cc3c(c(-c4ccc(F)cc4)n2)OC[C@]3(C)C(N)=O)C(F)(F)F)cc2cc(C)cnc12 [Example 329]	< 200	< 500		
Cc1cc2cc(C(=O)NC[C@](O)(c3cc4c(c(-c5ccc(F)c(Cl)c5)n3)OC[C@]4(C)C(N)=O)C(F)(F)F)cc(Cl)c2nc1C [Example 182]	< 200	< 500		
C[C@@H](N)C(=O)Nc1nc2ccc(C(=O)NC[C@](O)(c3cc4c(c(-c5ccc(F)cc5)n3)OC[C@]4(C)C(N)=O)C(F)(F)F)cc2s1 [Example 158]			< 200	> 500
COc1cc(C(=O)NC[C@](O)(c2cc3c(c(-c4ccc(Cl)c(F)c4)n2)OC[C@]3(C)C(N)=O)C(F)(F)F)cc2cn(C(F)F)nc12 [Example 300]	< 200	< 500		
Cc1cn2cc(C(=O)NC[C@](O)(c3cc4c(c(-c5ccc(F)cc5)n3)OC[C@]4(C)C(N)=O)C(F)(F)F)cc(Cl)c2n1 [Example 55]	< 200	< 500		
C[C@]1(C(N)=O)COc2c1cc([C@@](O)(CNC(=O)c1cc(C(F)(F)F)c3[nH]ncc3c1)C(F)(F)F)nc2-c1ccc(F)cc1 [Example 105]	< 200	> 500		

SMILES	EC50 [1, 3] [nM]	EC50 [2, 4] [nM]	EC50 [1] [nM]	EC50 ([2]; Method-A, MPV-GFP1 in Vero E6 cells, eGFP fluorescence after 5 days) [nM]
C[C@]1(C(N)=O)COc2c1cc([C@@](O)(CNC(=O)c1ccc3c(c1)CN(C1CC1)C3=O)C(F)(F)F)nc2-c1ccc(F)cc1 [Example 34]	< 200	> 500		
C[C@]1(C(N)=O)COc2c1cc([C@@](O)(CNC(=O)c1ccc3nc(NC(=O)[C@@H]4CCCN4)sc3c1)C(F)(F)F)nc2-c1ccc(F)cc1 [Example 160]	< 200	> 500		
COc1cc(C(=O)NC[C@](O)(c2cc3c(c(-c4ccc(F)cc4)n2)OC[C@]3(C)C(N)=O)C(F)(F)F)cc2cc(C)nnc12 [Example 9]	< 200	< 500		
Cc1n[nH]c2ccc(C(=O)NC[C@](O)(c3cc4c(c(-c5ccc(F)cc5)n3)OC[C@]4(C)C(N)=O)C(F)(F)F)cc12 [Example 100]	< 200	> 500		
COc1cc(C(=O)NC[C@](O)(c2cc3c(c(-c4ccc(F)c(Cl)c4)n2)OC[C@]3(C)C(N)=O)C(F)(F)F)cn2cc(C3CC3)nc12 [Example 59]	< 200	< 500		
C[C@]1(C(N)=O)COc2c1cc([C@@](O)(CNC(=O)c1ccc3nn(C(F)F)cc3c1)C(F)(F)F)nc2-c1ccc(F)cc1 [Example 41]	< 200	< 500		
CC(C)[C@H](N)C(=O)Nc1nc2ccc(C(=O)NC[C@](O)(c3cc4c(c(-c5ccc(F)cc5)n3)OC[C@]4(C)C(N)=O)C(F)(F)F)cc2s1 [Example 155]	< 200	> 500		
Cn1cc2cc(C(=O)NC[C@](O)(c3cc4c(c(-c5ccc(F)cc5)n3)OC[C@]4(C)C(N)=O)C(F)(F)F)cc(F)c2n1 [Example 22]	< 200	< 500		
C[C@]1(C(N)=O)COc2c1cc([C@@](O)(CNC(=O)c1ccc(OC[C@H](O)C(F)(F)F)c(OC3CC3)c1)C(F)(F)F)nc2-c1ccc(F)cc1 [Example 135]	< 200	> 500		
C[C@]1(C(N)=O)COc2c1cc([C@@](O)(CNC(=O)c1cc(F)c3nc(N)sc3c1)C(F)(F)F)nc2-c1ccc(C#N)cc1 [Example 309]	< 200	> 500		
Cc1cn2cc(C(=O)NC[C@](O)(c3cc4c(c(-c5ccc(F)cc5)n3)OC[C@]4(C)C(N)=O)C(F)(F)F)ccc2n1 [Example 50]	< 200	> 500		
COc1cc(C(=O)NC[C@](O)(c2cc3c(c(-c4ccc(F)cc4)n2)OC[C@]3(C)C(N)=O)C(F)(F)F)cc2cc(Cl)c(C)nc12 [Example 82]	< 200	< 500		
C[C@]1(C(N)=O)COc2c1cc([C@@](O)(CNC(=O)c1cc(Cl)c3ncc(C4CC4)cc3c1)C(F)(F)F)nc2-c1ccc(F)cc1 [Example 72]	< 200	< 500		
CCNc1nc2ccc(C(=O)NC[C@](O)(c3cc4c(c(-c5ccc(F)cc5)n3)OC[C@]4(C)C(N)=O)C(F)(F)F)cc2s1 [Example 139]	< 200	> 500		
Cc1cc2cc(C(=O)NC[C@](O)(c3cc4c(c(-c5ccc(F)cc5)n3)OC[C@]4(C)C(N)=O)C(F)(F)F)cc(OC3CC3)c2nc1C [Example 178]	< 200	> 500		
Cc1nc2c(OC(F)(F)F)cc(C(=O)NC[C@](O)(c3cc4c(c(-c5ccc(F)cc5)n3)OC[C@]4(C)C(N)=O)C(F)(F)F)cc2s1 [Example 97]	< 200	> 500		
C[C@H](COc1ccc(C(=O)NC[C@](O)(c2cc3c(c(-c4ccc(F)cc4)n2)OC[C@]3(C)C(N)=O)C(F)(F)F)cc1OC1CC1)OP(=O)(O)O [Example 3]	< 200	> 500		
C[C@]1(C(N)=O)COc2c1cc([C@@](O)(CNC(=O)c1cc(OC3CC3)n3nc(C4CC4)cc3c1)C(F)(F)F)nc2-c1ccc(F)cc1 [Example 321]	< 200	< 500		
C[C@]1(C(N)=O)COc2c1cc([C@@](O)(CNC(=O)c1cc(Cl)c3nc(N)sc3c1)C(F)(F)F)nc2-c1ccc(F)c(Cl)c1 [Example 13]	< 200	< 500		
Cc1cc2cc(C(=O)NC[C@](O)(c3cc4c(c(-c5ccc(F)c(Cl)c5)n3)OC[C@]4(C)C(N)=O)C(F)(F)F)cc(OC(F)(F)F)c2nc1C [Example 184]	< 200	> 500		
